The star is where a group is joined. aminoluciferin = O=C(O)[C@H]1CSC(c2nc3ccc(N*)cc3s2)=N1
Experiments:
luciferase [1] = assay: imaging of mice expressing the luc gene after substrate injection; format: in vivo, mouse; conditions: substrate injected, no protease injected
Experimental: In these experiments, injection of the mice with luciferin activates the luciferin-luciferase reaction and the subsequent emission of light, i.e., photons, which can be monitored outside the body using low light imaging systems, based on charge coupled device (“CCD”) cameras.
In FIG. 4A, the pictured mouse was injected with luciferin. […] In FIG. 4B, the mice were injected with the modified substrate N-Ac-Phe-aminoluciferin. […] The mouse pictured on the right was subjected to further injections with chymotrypsin at selected sites. Chymotrypsin is a proteolytic enzyme that can use N-Ac-Phe-aminoluciferin as a substrate.

[2] = tested on: LNCaP, a prostate cancer cell line that produces PSA; assay: in vitro model: PSA-specific substrate on PSA secreting cells (FIG. 7); format: cell-based; conditions: serum-free media
Experimental: The LNCaP cells were incubated for 5 and 19 hours, which represented two time intervals during which the cells were to synthesize PSA, and both cell lines were transfected with SKLQ-aLuc to produce luciferase. […] (“DHT”) was used to investigate its influence on cell growth and PSA production. The cell culture media was serum-free to prevent PSA from forming complexes with various serine-protease inhibitors that are present in the serum.

LNCaP tumor (PSA) = assay: in vivo model: SCID mice bearing subcutaneous LNCaP tumor (FIG. 8); set-up: species or system mouse; conditions: FIG. 8B
Experimental: The peptides were then tested in severe compromised immune deficiency (SCID) mice that bore an LNCaP tumor implanted at a subcutaneous site. […] The mice were injected with luciferin to localize the tumors and confirm their presence. […] The aminoluciferin released from the cleavage of the peptide by PSA is transported across the LNCaP cell membrane and reacts with luciferase to emit light. Thus, the aminoluciferyl peptide is activated by PSA and consequently can be used to target PSA producing cells in animal models.

chymotrypsin [3] = assay: in vivo protease assay: luc mice given substrate plus chymotrypsin injections at selected sites; set-up: species or system mouse; conditions: mice expressing luc gene, further injections with chymotrypsin at selected sites
Experimental: In FIG. 4A, the pictured mouse was injected with luciferin. […] In FIG. 4B, the mice were injected with the modified substrate N-Ac-Phe-aminoluciferin. […] The dramatic reduction in signal intensity (note scales on images) on the second mouse is due to the lack of freely available substrate for the luciferase reaction. The mouse pictured on the right was subjected to further injections with chymotrypsin at selected sites. Chymotrypsin is a proteolytic enzyme that can use N-Ac-Phe-aminoluciferin as a substrate. […] The freely available aminoluciferin was then catalyzed by luciferase to generate the photons seen in the photograph. […] It can thus be observed that the use of aminoluciferin substrates results in increased versatility for in vivo assays such that protease activity can be assessed in live cells in vivo or in a test tube.
In a one embodiment of the invention, peptide sequences that are conjugated to aminoluciferin are cleaved by the protease chymotrypsin or by chymotrypsin-like proteases, such as, for example, PSA, a clinical marker for prostate cancer.

chymotrypsin [4] = assay: protease assay of FIG. 3, performed in culture; format: cell-based
From the text: The procedure described in FIG. 2 may be used in in vivo protease assays. Naturally occurring proteases can be used to convert luciferylpeptides to aminoluciferin. These naturally occurring proteases may be associated with a physical state of the body, an organ, tissue, or cells, or may be associated with the location of particular conditions. There, the luciferylpeptide, N-Ac-Phe-aminoluciferin, was synthesized from a solution of 6-amino-2-cyanobenzothiazole, pursuant to the procedure set forth in Monsees et al., supra. […] The aminoluciferin was then available for reaction with luciferase, and in the presence of ATP and O2 in the cells, produced visible light and oxyaminoluciferin. The procedure shown in FIG. 3 was initially performed in culture and subsequently in a transgenic mouse model. This procedure can be modified by adding different compounds to the aminoluciferin, and cleaving the conjugate at the appropriate time and place with specific enzymes.

luciferase [5] = molecular target: luciferase (Photinus pyralis, UniProt P08659); conditions: in the presence of ATP, Mg2+/O2 and luciferase; cited from earlier work
Chain of luciferase (Photinus pyralis, UniProt P08659) (P08659 whole entry): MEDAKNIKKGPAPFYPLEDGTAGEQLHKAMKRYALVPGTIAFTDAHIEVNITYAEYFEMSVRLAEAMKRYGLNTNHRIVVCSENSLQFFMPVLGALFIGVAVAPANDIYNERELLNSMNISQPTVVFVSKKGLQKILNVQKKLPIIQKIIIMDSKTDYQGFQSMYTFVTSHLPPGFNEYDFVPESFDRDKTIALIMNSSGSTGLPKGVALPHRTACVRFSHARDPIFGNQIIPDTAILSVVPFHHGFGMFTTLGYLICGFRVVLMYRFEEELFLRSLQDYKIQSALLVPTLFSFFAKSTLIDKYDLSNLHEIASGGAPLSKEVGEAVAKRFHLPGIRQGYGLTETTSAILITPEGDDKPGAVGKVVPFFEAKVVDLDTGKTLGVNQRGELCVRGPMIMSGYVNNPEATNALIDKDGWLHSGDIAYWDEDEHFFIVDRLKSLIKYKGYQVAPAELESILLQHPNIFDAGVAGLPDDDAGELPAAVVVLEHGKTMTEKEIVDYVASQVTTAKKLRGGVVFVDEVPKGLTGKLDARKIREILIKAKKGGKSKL

## O=C(O)[C@H]1CSC(c2nc3ccc(O)cc3s2)=N1 [luciferin, (D)-(−)-2-(6′-Hydroxy-2′-benzothiazolyl)-2-thiazoline-4-carboxylic acid]
Luciferase [1]
  photon emission from the mouse: most of the tissues of this mouse emitted visible light

## Ac-Ser-Lys-Leu-Gln-aLuc (Ac-SKLQ-aminoluciferin; SMILES CC(=O)N[C@@H](CO)C(=O)N[C@@H](CCCCN)C(=O)N[C@@H](CC(C)C)C(=O)N[C@@H](CCC(N)=O)C(=O)Nc1ccc2nc(C3=N[C@@H](C(=O)O)CS3)sc2c1) [SKLQ-aLuc]
[2]; LNCaP incubated 5 and 19 hours, PC3M as non-PSA line
  amount of aminoluciferyl peptide detected in the cells versus PSA secreted: directly proportional to the amount of PSA secreted into the media by the LNCaP cells
LNCaP tumor (PSA)
  light emission from LNCaP tumors: light emission from these tumors

## CC(=O)N[C@@H](Cc1ccccc1)C(=O)Nc1ccc2nc(C3=N[C@@H](C(=O)O)CS3)sc2c1 [N-Ac-Phe-aminoluciferin]
Chymotrypsin [3]
  photon emission from the mouse after protease injection: only the sites where the protease enzyme was injected produced detectable signals
Chymotrypsin [4]; before addition of chymotrypsin
  luminescence of the intact luciferylpeptide: prevented from luminescing
Chymotrypsin [4]; upon addition of chymotrypsin
  cleavage of the luciferylpeptide by the protease: aminoluciferin was cleaved from the luciferylpeptide
Luciferase [1]
  photon emission from the mouse: only isolated regions of the mouse produced low level photon emission

## Nc1ccc2nc(C3=N[C@@H](C(=O)O)CS3)sc2c1 [aminoluciferin, D-(−)-2-(6′-amino-2′-benzothiazolyl)-Δ^2-thiazoline-4-carboxylic Acid]
Luciferase [5]
  light generation compared with luciferin: generates light to the same extent as does luciferin

## C[C@]12CCC(=O)C[C@@H]1CC[C@@H]1[C@@H]2CC[C@]2(C)[C@@H](O)CC[C@@H]12 [DHT, Dihydroxytestosterone]
[2]; LNCaP/PC3M
  influence on PSA levels: does not appear to influence
  influence on cell growth: does not appear to influence

— US20060073529A1, “Luciferyl peptide substrate” (priority 2004, published 2006)
